Measured values as given in ChEMBL document CHEMBL6134905, “Double Swords in One: Novel Selective PI3K/110β PROTAC Degraders for the Treatment of Multidrug-Resistant Cancer by Activating ERS and Inhibiting P-gp” (J Med Chem, 2025).
Active and inactive are the calls of the source. No cut-off for these calls is given here. Residues, ends and D or L forms follow the SMILES beside them. *: point of attachment. Cbz = O=C(OCc1ccccc1)*; CH2F = FC*

Columns and labels:
[1] = target: T1, von Hippel-Lindau disease tumor suppressor/Phosphatidylinositol 4,5-bisphosphate 3-kinase catalytic subunit beta isoform (Homo sapiens, UniProt P42338+P40337); assay: PROTAC activity at PI3K-p110beta/VHL in human MCF7/ADM cells assessed as induction of PI3K-p110beta degradation at 2.5 uM incubated for 24 hrs by Western blot analysis; assay type: cell-based
T1 sequence (P40337 whole entry, looked up, canonical isoform): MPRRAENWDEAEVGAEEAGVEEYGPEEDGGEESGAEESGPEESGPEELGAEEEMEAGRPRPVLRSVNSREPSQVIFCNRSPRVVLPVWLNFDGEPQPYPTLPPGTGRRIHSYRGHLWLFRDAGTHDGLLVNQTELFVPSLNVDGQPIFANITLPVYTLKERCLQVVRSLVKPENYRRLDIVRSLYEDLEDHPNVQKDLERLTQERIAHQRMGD
T1 sequence (P42338 whole entry, looked up, canonical isoform): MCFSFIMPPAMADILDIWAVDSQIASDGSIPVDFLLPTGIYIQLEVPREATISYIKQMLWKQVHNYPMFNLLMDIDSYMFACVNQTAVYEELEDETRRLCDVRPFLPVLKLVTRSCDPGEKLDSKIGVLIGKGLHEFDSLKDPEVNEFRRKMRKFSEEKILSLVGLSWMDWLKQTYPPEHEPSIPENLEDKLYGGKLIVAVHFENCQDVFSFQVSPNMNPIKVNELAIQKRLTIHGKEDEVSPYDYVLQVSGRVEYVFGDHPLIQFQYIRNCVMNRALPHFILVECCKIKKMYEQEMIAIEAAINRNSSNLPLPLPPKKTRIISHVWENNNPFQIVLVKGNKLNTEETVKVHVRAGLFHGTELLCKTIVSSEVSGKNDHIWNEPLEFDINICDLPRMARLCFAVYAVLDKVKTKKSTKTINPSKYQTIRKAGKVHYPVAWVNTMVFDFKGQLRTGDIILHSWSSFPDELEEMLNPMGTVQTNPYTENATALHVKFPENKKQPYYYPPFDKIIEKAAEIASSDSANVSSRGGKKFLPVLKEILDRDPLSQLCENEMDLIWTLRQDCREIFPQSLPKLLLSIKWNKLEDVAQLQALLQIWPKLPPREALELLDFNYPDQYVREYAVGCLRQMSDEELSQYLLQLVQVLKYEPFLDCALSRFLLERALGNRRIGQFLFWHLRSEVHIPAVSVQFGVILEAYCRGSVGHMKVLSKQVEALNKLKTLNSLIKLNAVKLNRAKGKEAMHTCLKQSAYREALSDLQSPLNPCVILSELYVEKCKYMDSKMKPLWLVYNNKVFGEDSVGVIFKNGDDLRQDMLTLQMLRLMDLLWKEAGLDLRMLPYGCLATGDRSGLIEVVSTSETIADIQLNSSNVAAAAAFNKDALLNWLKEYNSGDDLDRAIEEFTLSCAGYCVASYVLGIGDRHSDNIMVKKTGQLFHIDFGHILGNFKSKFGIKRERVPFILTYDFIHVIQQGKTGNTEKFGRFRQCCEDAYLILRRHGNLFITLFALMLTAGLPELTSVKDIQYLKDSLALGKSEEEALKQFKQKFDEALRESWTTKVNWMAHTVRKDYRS

[2] = target: T1, von Hippel-Lindau disease tumor suppressor/Phosphatidylinositol 4,5-bisphosphate 3-kinase catalytic subunit beta isoform; assay: PROTAC activity at PI3K-p110beta/VHL in human A549/DDP cells assessed as induction of PI3K-p110beta degradation at 25 uM incubated for 24 hrs by Western blot analysis; assay type: cell-based
[3] = target: T1, von Hippel-Lindau disease tumor suppressor/Phosphatidylinositol 4,5-bisphosphate 3-kinase catalytic subunit beta isoform; assay: PROTAC activity at PI3K-p110beta/VHL in human A549/DDP cells assessed as induction of PI3K-p110beta degradation at 2.5 uM incubated for 24 hrs by Western blot analysis; assay type: cell-based
[4] = target: T1, von Hippel-Lindau disease tumor suppressor/Phosphatidylinositol 4,5-bisphosphate 3-kinase catalytic subunit beta isoform; assay: PROTAC activity at PI3K-p110beta/VHL in human MCF7/ADM cells assessed as induction of PI3K-p110beta degradation at 25 uM incubated for 24 hrs by Western blot analysis; assay type: cell-based
[5] = target: T1, von Hippel-Lindau disease tumor suppressor/Phosphatidylinositol 4,5-bisphosphate 3-kinase catalytic subunit beta isoform; assay: PROTAC activity at PI3K-p110beta/VHL in human A549/DDP cells assessed as reduction in PI3K-p110beta mRNA level at 25 uM measured for 24 hrs by qRT-PCR analysis; assay type: cell-based
MCF7 = assay: Antitumor activity against human MCF7 cells assessed as cell viability incubated for 24 hrs by MTT assay; assay type: functional, cell-based; conditions: MCF7, 24 h
[6] = target: T1, von Hippel-Lindau disease tumor suppressor/Phosphatidylinositol 4,5-bisphosphate 3-kinase catalytic subunit beta isoform; assay: PROTAC activity at PI3K-p110beta/VHL in human A549/DDP cells assessed as reduction in PI3K-p110beta level at 25 uM measured for 24 hrs by Western blot analysis; assay type: cell-based
[7] = Antitumor activity against human MCF7/ADM cells assessed as cell viability incubated for 24 hrs by MTT assay; assay type: functional, cell-based
MCF7/ADM [8] = assay: Antitumor activity against human MCF7/ADM cells xenografted in BALB/c mouse assessed as reduction in tumor volume at 50 mg/kg, ip measured every 2 days; assay type: functional, organism-based; conditions: time 2.0 day
[9] = target: T1, von Hippel-Lindau disease tumor suppressor/Phosphatidylinositol 4,5-bisphosphate 3-kinase catalytic subunit beta isoform; assay: PROTAC activity at PI3K-p110beta/VHL in human MCF7/ADM cells assessed as reduction in PI3K-p110beta mRNA level at 25 uM measured for 24 hrs by qRT-PCR analysis; assay type: cell-based
A549 = assay: Antitumor activity against human A549 cells assessed as cell viability incubated for 24 hrs by MTT assay; assay type: functional, cell-based; conditions: A549, 24 h
[10] = target: T1, von Hippel-Lindau disease tumor suppressor/Phosphatidylinositol 4,5-bisphosphate 3-kinase catalytic subunit beta isoform; assay: PROTAC activity at PI3K-p110beta/VHL in human MCF7/ADM cells assessed as reduction in PI3K-p110beta level at 25 uM measured for 24 hrs by Western blot analysis; assay type: cell-based
A549/CDDP [11] = assay: Antitumor activity against human A549/DDP cells assessed as cell viability incubated for 24 hrs by MTT assay; assay type: functional, cell-based
A549/CDDP [12] = assay: Induction of cell death in human A549/DDP cells at 25 uM incubated for 24 hrs; assay type: functional, cell-based
MCF7/ADM [13] = assay: Induction of cell death in human MCF-7/ADM cells at 25 uM incubated for 24 hrs; assay type: functional, cell-based
[14] = Induction of apoptosis in human MCF7/ADM cells at 25 uM incubated for 24 hrs by Annexin V-FITC/PI staining based flow cytometry analysis (reference value: 5.20%); assay type: functional
A549/CDDP [15] = assay: Induction of apoptosis in human A549/DDP cells at 25 uM incubated for 24 hrs by Annexin V-FITC/PI staining based flow cytometry analysis (reference value: 4.27%); assay type: functional
A549/CDDP [16] = assay: Activation of unfolded protein response in human A549/DDP cells at 25 uM incubated for 24 hrs by PROTEOSTATR aggresome dye based fluorescent microscopy; assay type: functional, cell-based

| SMILES | Activity [1] | Activity [2] | Activity [3] | Activity [4] | also measured |
| --- | --- | --- | --- | --- | --- |
| Cc1cc(C(C)Nc2ccccc2C(=O)NCCCCCC(=O)N[C@H](C(=O)N2C[C@H](O)C[C@H]2C(=O)NCc2ccc(-c3scnc3C)cc2)C(C)(C)C)c2nc(N3CCOCC3)cc(=O)n2c1 (some centres not stated) | Active | Active | Active | Active |  |
| Cc1cc(C(C)Nc2ccccc2)c2nc(N3CCOCC3)cc(=O)n2c1 (configuration not stated) |  |  |  |  | Activity [5]: inactive; IC50 (MCF7): 75.1 µM; Activity [6]: inactive; IC50 [7]: 50.8 µM; Activity (MCF7/ADM [8]): Active; Activity [9]: Active; IC50 (A549): 88.3 µM; Activity [10]: inactive; IC50 (A549/CDDP [11]): 57.9 µM |
| Cc1cc(C(C)Nc2ccccc2C(=O)NCCCCCCCC(=O)N[C@H](C(=O)N2C[C@H](O)C[C@H]2C(=O)NCc2ccc(-c3scnc3C)cc2)C(C)(C)C)c2nc(N3CCOCC3)cc(=O)n2c1 (some centres not stated) | Active | Active | Active | Active |  |
| Cc1cc(C(C)Nc2ccccc2C(=O)NCCCCCCCCCCC(=O)N[C@H](C(=O)N2C[C@H](O)C[C@H]2C(=O)NCc2ccc(-c3scnc3C)cc2)C(C)(C)C)c2nc(N3CCOCC3)cc(=O)n2c1 (some centres not stated) | Active | Active | Active | Active |  |
| Cc1cc(C(C)Nc2ccccc2C(=O)NCCC(=O)N[C@H](C(=O)N2C[C@H](O)C[C@H]2C(=O)NCc2ccc(-c3scnc3C)cc2)C(C)(C)C)c2nc(N3CCOCC3)cc(=O)n2c1 (some centres not stated) | Active | Active | Active | Active |  |
| CC(C)[C@H](NC(=O)OCc1ccccc1)C(=O)N[C@@H](C)C(=O)N[C@@H](CC(=O)O)C(=O)CF (Cbz-Val-Ala-Asp-CH2F) |  |  |  |  | Activity (A549/CDDP [12]): Active; Activity (MCF7/ADM [13]): Active |
| C[C@H](CCC(=O)NCCS(=O)(=O)O)[C@H]1CC[C@H]2[C@@H]3[C@@H](O)C[C@@H]4C[C@H](O)CC[C@]4(C)[C@H]3CC[C@]12C [TAURURSODIOL] |  |  |  |  | Activity (A549/CDDP [12]): Active; Activity (MCF7/ADM [13]): Active; Activity [14]: 21.48%; Activity (A549/CDDP [15]): 18.57% |
| N#CSc1cc(SC#N)c(N)nc1N |  |  |  |  | Activity (A549/CDDP [16]): Active |
| O=c1cc(N2CCOCC2)oc2c(-c3ccccc3)cccc12 |  |  |  |  | Activity (A549/CDDP [16]): Active |
| Cc1cc(C(C)Nc2ccccc2C(=O)NCCCC(=O)N[C@H](C(=O)N2C[C@H](O)C[C@H]2C(=O)NCc2ccc(-c3scnc3C)cc2)C(C)(C)C)c2nc(N3CCOCC3)cc(=O)n2c1 (some centres not stated) | Active | Active | Active | Active |  |
